Source: patent publication US20050159594A1, “Eplerenone crystal form exhibiting enhanced dissolution rate” (Pharmacia Corporation, priority 1995, published 2005)
In brackets after ≈: the same amount, converted by molar mass.

Legend:
Type in all cases: physicochemical
[1] = Slurry conversion / thermodynamic stability of Form H versus Form L
Protocol: Approximately 150 mg of Form L eplerenone and 150 mg of Form H eplerenone were added to 5 ml ethyl acetate. The resulting slurry was magnetically stirred at 300 rpm overnight. The next day a sample of the resulting solid was collected by filtration.

[2] = Intrinsic dissolution rate of eplerenone polymorph samples
Protocol: Intrinsic dissolution rates were measured for the following four eplerenone polymorph samples: (i) Form L eplerenone prepared by direct crystallization from acetonitrile using water as an anti-solvent in the same manner as in Example 11, Procedure B; (ii) Form H eplerenone prepared by digestion in ethanol in the same manner as in Example 10, Procedure A, (iii) a mixture of 5% Form H and 95% Form L; and (iv) Form L eplerenone that was micronized to provide the following particle size distribution: 10% by weight of the particles under 9 μm, 50% by weight of the particles under 22 μm, and 90% by weight of the particles under 41 μm.
Eplerenone in an amount of 150 mg was weighed and placed into a VanKel intrinsic dissolution cavity. The powder was compressed at 8280 kPa using a Carver press to form tablets. The sample was then mounted on the intrinsic dissolution apparatus. The dissolution medium used was 1% sodium dodecyl sulfate (SDS) in HPLC water. All tests were conducted at 37° C. for 2 hours. […] Samples were drawn at determined intervals for the determination of rate of dissolution. […] The samples were analyzed by UV absorbance detection at 243 nm. Intrinsic dissolution rates were calculated from the slope of the linear portion of the concentration versus time profiles corrected for volume and normalized for the surface area of the dissolution tablet (0.5 cm^2).

[3] = Aqueous solubility of Form L eplerenone; conditions: for solubility: phosphate buffer, pH 7, aqueous, pH 7 (100 mM phosphate buffer)
Protocol: The aqueous solubility of Form L eplerenone was measured at pH 7 (100 mM phosphate buffer) at 5, 25 and 40° C. Approximately 30 mg of Form L eplerenone was mixed with approximately 10 ml of buffer to form a slurry of eplerenone at both 5 and 25° C. Approximately 40 mg of […] eplerenone was mixed with approximately 10 ml of buffer to form a slurry of eplerenone at 40° C. Samples were prepared in duplicate for each condition. The slurries were allowed to equilibrate in water shaker baths at the appropriate temperature and the solutions were analyzed for eplerenone content by ultraviolet visible analysis (245 nm) at time intervals of 1, 5, 12, 19, 27 and 36 days. Data from each temperature were appropriately averaged to determine the solubility of eplerenone at each temperature and are reported in Table 8.

Row | Structure (SMILES) | Solid form after slurry conversion (XRPD) ([1]; 150 mg Form L + 150 mg Form H in 5 ml ethyl acetate, stirred overnight) | Intrinsic dissolution rate, comparison in words ([2]; 1% SDS in HPLC water, 37 °C, 2 hours, compressed tablet 0.5 cm^2) | Dissolution rate relative to Form L eplerenone (faster by) ([2]; aqueous medium, temperatures below the enantiotropic transition temperature) | Thermodynamic stability, comparison of polymorphs ([1]; ambient temperatures) | Solid form of residual solids after equilibration (DSC, TGA) ([3]; aqueous slurry pH 7, end of the 36 day equilibration) | solubility ([3]; 5 °C) | solubility ([3]; 25 °C) | solubility ([3]; 40 °C)
1 | COC(=O)[C@@H]1CC2=CC(=O)CC[C@]2(C)[C@@]23O[C@@H]2C[C@@]2(C)C(CC[C@@]24CCC(=O)O4)C13 (some centres unmarked) [Form H eplerenone, methyl hydrogen 9,11-epoxy-17-hydroxy-3-oxopregn-4-ene-7,21-dicarboxylate, γ-lactone] | entirely composed of Form L eplerenone | faster intrinsic dissolution rate than Form L eplerenone | approximately 30% |  |  |  |  | 
2 | COC(=O)[C@@H]1CC2=CC(=O)CC[C@]2(C)[C@@]23O[C@@H]2C[C@@]2(C)C(CC[C@@]24CCC(=O)O4)C13 (some centres unmarked) [Form L eplerenone, methyl hydrogen 9,11-epoxy-17-hydroxy-3-oxopregn-4-ene-7,21-dicarboxylate, γ-lactone] |  |  |  | more thermodynamically stable than Form H at ambient temperatures | determined to be Form L eplerenone | 240 µg/mL (≈ 579 µM) | 290 µg/mL (≈ 700 µM) | 390 µg/mL (≈ 941 µM)
